Experimental data as given in patent US20240116985A1, “STAPLED PEPTIDES AND METHODS THEREOF” (priority 2020, published 2024).

How the values were obtained:
CHI Log D procedure = format: physicochemical; conditions: for CHI Log D: pH 7.4; for chromatographic logD: pH 7.4, CHI Log D
[1] = biological target: T1, full-length B-Catenin (Uniprot ID P35222) (Homo sapiens, UniProt P35222); experiment: Alphascreen binding assay (beta-catenin / biotin-TCF4 10-53)
T1 construct: 65 nM full-length B-Catenin (Uniprot ID P35222)
T1 sequence (P35222 1-781): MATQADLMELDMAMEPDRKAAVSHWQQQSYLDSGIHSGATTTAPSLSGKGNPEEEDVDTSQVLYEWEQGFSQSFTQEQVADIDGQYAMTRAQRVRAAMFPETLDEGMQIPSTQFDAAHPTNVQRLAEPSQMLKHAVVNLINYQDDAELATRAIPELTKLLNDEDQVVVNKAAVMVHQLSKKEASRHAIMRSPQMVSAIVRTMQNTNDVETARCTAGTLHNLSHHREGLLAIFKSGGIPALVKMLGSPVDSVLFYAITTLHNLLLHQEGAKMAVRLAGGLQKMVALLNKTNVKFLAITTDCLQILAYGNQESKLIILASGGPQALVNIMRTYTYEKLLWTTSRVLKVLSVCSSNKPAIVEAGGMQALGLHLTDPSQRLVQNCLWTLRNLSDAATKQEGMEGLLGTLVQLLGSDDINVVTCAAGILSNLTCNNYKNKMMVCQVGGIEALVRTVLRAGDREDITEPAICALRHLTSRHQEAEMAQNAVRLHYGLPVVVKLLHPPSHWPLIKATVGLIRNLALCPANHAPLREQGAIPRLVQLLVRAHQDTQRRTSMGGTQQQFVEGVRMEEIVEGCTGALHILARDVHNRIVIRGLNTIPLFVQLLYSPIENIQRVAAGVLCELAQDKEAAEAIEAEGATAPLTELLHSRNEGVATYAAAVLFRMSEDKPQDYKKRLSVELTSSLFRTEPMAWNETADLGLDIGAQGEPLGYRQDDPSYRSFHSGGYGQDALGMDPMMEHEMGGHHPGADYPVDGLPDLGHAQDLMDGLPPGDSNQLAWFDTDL
How it was run: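 AlphaScreen (Ni-chelate beads) competition in 50 mM Tris pH 8.0, 250 mM NaCl with detergents and 0.1% BSA. Peptide titrated 10 uM–5 nM against 65 nM human β-catenin bound to 10 nM biotinylated TCF4 10-53, 15 min then 60 min with beads, both at 20 °C; 1:1 Hill-slope fit.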

Compound	CHI Log D (CHI Log D procedure)	EC50 [1] [nM]	chromatographic logD (CHI Log D procedure)
COc1cccc(C[C@@H]2NC(=O)[C@H](C)NC(=O)[C@H](C)NC(=O)[C@H](CC(=O)O)NC(=O)[C@H](CC(=O)O)NC(=O)[C@](C)(NC(=O)[C@H](C)NC(=O)[C@H](CC(=O)O)NC(=O)[C@H](Cc3ccccc3)NC(C)=O)CCCCCCC=CCOC(=O)N3CC[C@@](C(=O)N[C@@H](Cc4ccccc4)C(=O)N[C@@H](Cc4c[nH]c5ccccc45)C(=O)N[C@@H](CCC(N)=O)C(N)=O)(C3)NC(=O)[C@H](C(C)C)NC2=O)c1 [I-103, Ac-Phe-Asp-Ala-R8-Asp-Asp-Ala-Ala-3OMeF-Val-PyrS-Phe-Trp-Gln-NH2]	1.268	4940	–
CC(=O)N1CCC[C@]12CC=CCCCC1(CCCC=CCCCCCC[C@@](C)(C(=O)N[C@@H](CC(=O)O)C(=O)N[C@@H](Cc3c[nH]c4ccccc34)C(=O)N[C@@H](CCC(N)=O)C(N)=O)NC(=O)[C@H](C(C)C)NC(=O)[C@H](Cc3ccccc3)NC(=O)[C@H](C)NC(=O)[C@H](C)NC(=O)[C@H](CC(=O)O)NC(=O)[C@H](CC(=O)O)NC1=O)NC(=O)[C@H](C)NC(=O)[C@H](CC(=O)O)NC2=O (stereo partly drawn) [I-283, Ac-PL3-Asp-Ala-B5-Asp-Asp-Ala-Ala-Phe-Val-S8-Asp-Trp-Gln-NH2]	–	9540	1.29
COc1ccc2[nH]cc(C[C@H](NC(=O)[C@H](Cc3ccccc3)NC(=O)[C@]3(C)CCCCCCC=CCCCC4(CCCC=CC[C@]5(CCCN5C(C)=O)C(=O)N[C@@H](CC(=O)O)C(=O)N[C@@H](C)C(=O)N4)C(=O)N[C@@H](CC(=O)O)C(=O)N[C@@H](CCC(=O)O)C(=O)N[C@@H](C)C(=O)N[C@@H](C)C(=O)N[C@@H](Cc4ccccc4)C(=O)N[C@@H](C(C)C)C(=O)N3)C(=O)N[C@@H](CCC(N)=O)C(N)=O)c2c1 (stereo partly drawn) [I-165, Ac-PL3-Asp-Ala-B5-Asp-Glu-Ala-Ala-Phe-Val-S8-Phe-5MeOW-Gln-NH2]	–	1230	2
CC(=O)N1CCC[C@]12CC=CCCCC1(CCCC=CCCCCCC[C@@](C)(C(=O)N[C@@H](Cc3ccccc3)C(=O)N[C@@H](Cc3c[nH]c4ccccc34)C(=O)N[C@@H](CCC(N)=O)C(N)=O)NC(=O)[C@H](C(C)C)NC(=O)[C@H](Cc3cc(F)c(F)c(F)c3)NC(=O)[C@H](C)NC(=O)[C@H](C)NC(=O)[C@H](CCC(=O)O)NC(=O)[C@H](CC(=O)O)NC1=O)NC(=O)[C@H](C)NC(=O)[C@H](CC(=O)O)NC2=O (stereo partly drawn) [I-212, Ac-PL3-Asp-Ala-B5-Asp-Glu-Ala-Ala-345FF-Val-S8-Phe-Trp-Gln-NH2]	2.101	367	–
CCCC[C@@H]1NC(=O)[C@H](CC(=O)O)NC(=O)[C@](C)(NC(=O)[C@@H](NC(=O)[C@H](CC(=O)O)NC(=O)[C@H](C)NC(C)=O)[C@@H](C)CC)CCN(C)C(=O)OCC=CCCCCC[C@@](C)(C(=O)N[C@@H](Cc2ccccc2)C(=O)N[C@@H](Cc2c[nH]c3ccccc23)C(=O)N[C@@H](Cc2c[nH]cn2)C(N)=O)NC(=O)[C@H](CCC(N)=O)NC(=O)[C@H](Cc2ccccc2)NC(=O)[C@H](C)NC(=O)[C@H](C)NC1=O [I-69, Ac-Ala-Asp-Ile-RdN-Asp-nLeu-Ala-Ala-Phe-Gln-S7-Phe-Trp-His-NH2]	1.593	9100	–
CC(=O)N[C@@H](Cc1ccccc1)C(=O)N[C@@H](CC(=O)O)C(=O)N[C@@H](C)C(=O)N[C@]1(C)CCCCCCC=CCOC(=O)N2CC[C@@](C(=O)N[C@@H](Cc3ccccc3)C(=O)N[C@@H](Cc3c[nH]c4ccccc34)C(=O)N[C@@H](CCC(N)=O)C(N)=O)(C2)NC(=O)[C@H](C(C)C)NC(=O)[C@H](Cc2ccccc2)NC(=O)[C@H](C)NC(=O)[C@H](C)NC(=O)[C@H](CCCC(=O)O)NC(=O)[C@H](CC(=O)O)NC1=O [I-6, Ac-Phe-Asp-Ala-R8-Asp-Aad-Ala-Ala-Phe-Val-PyrS-Phe-Trp-Gln-NH2]	1.378	6500	–
CC(=O)N1CCC[C@]12CC=CCCCC1(CCCC=CCCCCCC[C@@](C)(C(=O)N[C@@H](Cc3ccccc3)C(=O)N[C@@H](Cc3c[nH]c4ccccc34)C(=O)N[C@@H](C)C(N)=O)NC(=O)[C@H](C)NC(=O)[C@H](Cc3ccccc3)NC(=O)[C@H](C)NC(=O)[C@H](C)NC(=O)[C@H](CCC(=O)O)NC(=O)[C@H](CC(=O)O)NC1=O)NC(=O)[C@H](C)NC(=O)[C@H](CC(=O)O)NC2=O (stereo partly drawn) [I-186, Ac-PL3-Asp-Ala-B5-Asp-Glu-Ala-Ala-Phe-Ala-S8-Phe-Trp-Ala-NH2]	2.041	518	–
CC(=O)N1CCC[C@]12CC=CCCCC1(CCCC=CCCCCCC[C@@](C)(C(=O)N[C@@H](Cc3ccccc3)C(=O)N[C@@H](Cc3c[nH]c4ccccc34)C(=O)N[C@@H](CCC(N)=O)C(N)=O)NC(=O)[C@H](C(C)C)NC(=O)[C@H](Cc3cc(F)c(F)c(F)c3)NC(=O)[C@H](C)NC(=O)[C@H](C)NC(=O)[C@H](CCC(=O)O)NC(=O)[C@H](CC(=O)O)NC1=O)NC(=O)[C@H](C)NC(=O)[C@H](CC(=O)O)NC2=O (stereo partly drawn) [I-210, Ac-PL3-Asp-Ala-B5-Asp-Glu-Ala-Ala-345FF-Val-S8-Phe-Trp-Gln-NH2]	2.088	1400	–

The remaining lines, values ahead:

CHI Log D (CHI Log D procedure)	EC50 [1] [nM]	chromatographic logD (CHI Log D procedure)	Compound
2.242	626	–	CC(=O)N1CCC[C@]12CC=CCCCC1(CCCC=CCCCCCC[C@@](C)(C(=O)N[C@@H](Cc3ccccc3)C(=O)N[C@@H](Cc3c[nH]c4ccccc34)C(N)=O)NC(=O)[C@H](C(C)C)NC(=O)[C@H](Cc3ccccc3)NC(=O)[C@H](C)NC(=O)[C@H](C)NC(=O)[C@H](CC(=O)O)NC(=O)[C@H](CC(=O)O)NC1=O)NC(=O)[C@H](C)NC(=O)[C@H](CC(=O)O)NC2=O (stereo partly drawn) [I-289, Ac-PL3-Asp-Ala-B5-Asp-Asp-Ala-Ala-Phe-Val-S8-Phe-Trp-NH2]
3.101	2960	–	CC(=O)N1CCC[C@]12CC=CCCCC1(CCCC=CCCCCCC[C@@](C)(C(=O)N[C@@H](Cc3ccccc3)C(=O)N[C@@H](Cc3c[nH]c4ccccc34)C(=O)N[C@@H](CCC(N)=O)C(N)=O)NC(=O)[C@H](C(C)C)NC(=O)[C@H](Cc3ccccc3)NC(=O)[C@H](C)NC(=O)[C@H](C)NC(=O)[C@H](Cc3cccc(C(F)(F)F)c3)NC(=O)[C@H](CC(=O)O)NC1=O)NC(=O)[C@H](C)NC(=O)[C@H](CC(=O)O)NC2=O (stereo partly drawn) [I-244, Ac-PL3-Asp-Ala-B5-Asp-3F3MeF-Ala-Ala-Phe-Val-S8-Phe-Trp-Gln-NH2]
2.278	173	–	CC(=O)N1CCC[C@]12CC=CCCCC1(CCCC=CCCCCCC[C@@](C)(C(=O)N[C@@H](Cc3ccccc3)C(=O)N[C@@H](Cc3c[nH]c4ccccc34)C(=O)N[C@@H](CCC(N)=O)C(N)=O)NC(=O)[C@H](C(C)C)NC(=O)[C@H](Cc3ccccc3)NC(=O)[C@H](C)NC(=O)[C@H](C)NC(=O)[C@H](CCC(=O)O)NC(=O)[C@H](CC(=O)O)NC1=O)NC(=O)[C@H](C)NC(=O)[C@H](CC(N)=O)NC2=O (stereo partly drawn) [I-200, Ac-PL3-Asn-Ala-B5-Asp-Glu-Ala-Ala-Phe-Val-S8-Phe-Trp-Gln-NH2]
–	1750	2.6	CC(=O)N1CCC[C@]12CC=CCCCC1(CCCC=CCCCCCC[C@@](C)(C(=O)N[C@@H](Cc3ccccc3)C(=O)N[C@@H](Cc3c[nH]c4ccccc34)C(=O)N[C@@H](CCC(N)=O)C(N)=O)NC(=O)[C@H](C(C)C)NC(=O)[C@H](Cc3ccccc3)NC(=O)[C@H](C)NC(=O)[C@H](C)NC(=O)[C@H](Cc3ccc(N)cc3)NC(=O)[C@H](CC(=O)O)NC1=O)NC(=O)[C@H](C)NC(=O)[C@H](CC(=O)O)NC2=O (stereo partly drawn) [I-324, Ac-PL3-Asp-Ala-B5-Asp-4AmPhe-Ala-Ala-Phe-Val-S8-Phe-Trp-Gln-NH2]
2.067	384	–	CC(=O)N1CCC[C@]12CC=CCCCC1(CCCC=CCCCCCC[C@@](C)(C(=O)N[C@@H](Cc3ccccc3)C(=O)N[C@@H](Cc3c[nH]c4ccccc34)C(=O)N[C@@H](CCC(N)=O)C(N)=O)NC(=O)[C@H](C(C)C)NC(=O)[C@H](Cc3cccc(C(F)(F)F)c3)NC(=O)[C@H](C)NC(=O)[C@H](C)NC(=O)[C@H](CC(=O)O)NC(=O)[C@H](CC(=O)O)NC1=O)NC(=O)[C@H](C)NC(=O)[C@H](CC(=O)O)NC2=O (stereo partly drawn) [I-236, Ac-PL3-Asp-Ala-B5-Asp-Asp-Ala-Ala-3F3MeF-Val-S8-Phe-Trp-Gln-NH2]
1.973	4960	–	CC(=O)N1CCC[C@]12CC=CCCCC1(CCCC=CCCCCCC[C@@](C)(C(=O)N[C@@H](Cc3ccccc3)C(=O)N[C@@H](Cc3c[nH]c4ccccc34)C(=O)N[C@@H](CCC(N)=O)C(N)=O)NC(=O)[C@H](C(C)C)NC(=O)[C@H](Cc3ccccc3)NC(=O)[C@H](C)NC(=O)[C@H](C)NC(=O)[C@H](CC(=O)O)NC(=O)[C@H](CC(=O)O)NC1=O)NC(=O)[C@H](C)NC(=O)[C@H](CCC(=O)O)NC2=O (stereo partly drawn) [I-279, Ac-PL3-Glu-Ala-B5-Asp-Asp-Ala-Ala-Phe-Val-S8-Phe-Trp-Gln-NH2]
